Among the data in patent US20190292155A1, “THERAPEUTIC INHIBITORY COMPOUNDS” (LifeSci Pharmaceuticals, Inc., priority 2016, published 2019) are IC50 values, retold here.

Like-named read-outs stand apart in the source and are kept apart here.

The target of this test is T1, human complement factor D (Homo sapiens, UniProt P00746).
T1 construct: purchased R&D Systems 1824-SE
The test is described as follows: In vitro enzyme inhibition of human complement factor D (Z-Lys-SBzl/DTNB, A405). Format: biochemical. Here is the method:
The ability of the compounds disclosed herein to inhibit human complement factor D inhibitory activity was quantified according to the 12-step protocol provided below. • 1. Prepare assay buffer: 50 mM Tris/HCl, pH 7.5, 1 M NaCl. • 2. […] Then dilute the serial concentrations of Nafamostat Mesilate 20-fold in assay buffer. • 3. […] 0.5% DMSO was in each well finally. • 4. […] Add 10 μl diluted test compounds duplicated into the 96-well plate. […] 0.5% DMSO was in each well finally. • 6. Dilute 20 mM substrate Z-Lys-SBzl (Bachem, Cat# M-1300) to 200 μM in assay buffer with 200 μM DTNB (Sigma, Catalog# D8130). • 7. […] Add 40 μl diluted Complement Factor D in the 96-well plate. • 8. Positive control well contains Complement Factor D without test compound. Negative control well contains neither Complement Factor D nor test compound. Using assay buffer, bring the total volume of all controls to 50 al. • 9. Pre-incubate the plate for 5 min at room temperature. • 10. Add 50 μl of diluted substrate/DTNB mixture into each well. […] For kinetic reading: Immediately start measuring absorbance (A405 nm) continuously and record data every 30 sec for 60 min. • 12. Data analysis • Inhibition activity of compound was evaluated by IC50. IC50 was calculated according the dose-response curve of compound fitted using GraphPadPrism with “log(inhibitor)-response (variable slope)” equation. • % inhibition was calculated by using following equation:
[formula] • Mean(NC): The average value of the negative control wells' A405 nm values. • Mean(PC): The average value of the positive control wells' A405 nm values.

The mark [1] stands for this setting: biochemical assay, substrate Z-Lys-SBzl, read-out: CFD IC50.

T1 sequence (P00746 26-253): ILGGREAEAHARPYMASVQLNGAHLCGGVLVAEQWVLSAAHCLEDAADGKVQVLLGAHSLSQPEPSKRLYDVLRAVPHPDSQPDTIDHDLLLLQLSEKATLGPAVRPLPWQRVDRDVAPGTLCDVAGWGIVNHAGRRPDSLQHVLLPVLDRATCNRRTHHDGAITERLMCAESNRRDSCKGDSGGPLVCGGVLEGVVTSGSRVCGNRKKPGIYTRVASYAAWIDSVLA

In general, IC50 refers to the concentration at which inhibition is half-maximal. Take `CCOC(=O)CC(N(CC(=O)NCc1cccc(Cl)c1F)C(=O)Cn1nc(C(N)=O)c2ccccc21)C(F)(F)F` (stereo not shown) [Example 77, ethyl 3-(2-(3-carbamoyl-1H-indazol-1-yl)-N-(2-((3-chloro-2-fluorobenzyl)amino)-2-oxoethyl)acetamido)-4,4,4-trifluorobutanoate]: under setting [1], the IC50 fell in the range of 1 to 10 µM.

Compound `NC(=O)c1nn(CC(=O)N(CC(=O)NCc2cccc(Cl)c2F)C2CC2)c2ccc(F)cc12` [Example 78, 1-(2-((2-((3-chloro-2-fluorobenzyl)amino)-2-oxoethyl)(cyclopropyl)amino)-2-oxoethyl)-5-fluoro-1H-indazole-3-carboxamide] yielded an IC50 of 0.1 to 1 µM.

Consider `NC(=O)c1nn(CC(=O)N(CC(=O)NCc2cccc(Cl)c2F)C(CC(=O)O)C(F)(F)F)c2ccccc12` (stereo not shown) [Example 79, 3-(2-(3-carbamoyl-1H-indazol-1-yl)-N-(2-((3-chloro-2-fluorobenzyl)amino)-2-oxoethyl)acetamido)-4,4,4-trifluorobutanoic acid], for which, under setting [1], the IC50 fell in the range of 1 to 10 µM.

With `NC(=O)c1nn(CC(=O)N(CC(=O)NCc2cccc(Cl)c2F)C2CC2)c2ccc(Cl)cc12` [Example 80, 5-chloro-1-(2-((2-((3-chloro-2-fluorobenzyl)amino)-2-oxoethyl)(cyclopropyl)amino)-2-oxoethyl)-1H-indazole-3-carboxamide], the IC50 was in the range of 0.1 to 1 µM.

As for `NC(=O)c1nn(CC(=O)N(CC(=O)NCc2cccc(Cl)c2F)C2CC2)c2c(Cl)cccc12` [Example 81, 7-chloro-1-(2-((2-((3-chloro-2-fluorobenzyl)amino)-2-oxoethyl)(cyclopropyl)amino)-2-oxoethyl)-1H-indazole-3-carboxamide], the half-maximal inhibitory concentration (IC50) under setting [1] is below 0.1 µM.

In turn, `NC(=O)c1nn(CC(=O)N(CC(=O)NCc2c(F)ccc(Cl)c2F)C2CC2)c2ccccc12` [Example 82, 1-(2-((2-((3-chloro-2,6-difluorobenzyl)amino)-2-oxoethyl)(cyclopropyl)amino)-2-oxoethyl)-1H-indazole-3-carboxamide] gave a half-maximal inhibitory concentration (IC50) of 0.1 to 1 µM.

For `NC(=O)c1nn(CC(=O)N(CC(=O)NCc2ccc(F)c(Cl)c2F)C2CC2)c2ccccc12` [Example 83, 1-(2-((2-((3-chloro-2,4-difluorobenzyl)amino)-2-oxoethyl)(cyclopropyl)amino)-2-oxoethyl)-1H-indazole-3-carboxamide], the IC50 under setting [1] lay in the range of 0.1 to 1 µM.

Turning to `NC(=O)c1nn(CC(=O)N(CC(=O)NCc2cccc(Cl)c2F)C2CC2)c2cc(F)ccc12` [Example 84, 1-(2-((2-((3-chloro-2-fluorobenzyl)amino)-2-oxoethyl)(cyclopropyl)amino)-2-oxoethyl)-6-fluoro-1H-indazole-3-carboxamide], the IC50 lay within 0.1 to 1 µM.

Compound `NC(=O)c1nn(CC(=O)N(CC(=O)NCc2cccc(Cl)c2F)C2CC2)c2cc(Cl)ccc12` [Example 85, 6-chloro-1-(2-((2-((3-chloro-2-fluorobenzyl)amino)-2-oxoethyl)(cyclopropyl)amino)-2-oxoethyl)-1H-indazole-3-carboxamide] returned an IC50 of 0.1 to 1 µM.

As to `N#Cc1ccc2c(C(N)=O)nn(CC(=O)N(CC(=O)NCc3cccc(Cl)c3F)C3CC3)c2c1` [Example 86, 1-(2-((2-((3-chloro-2-fluorobenzyl)amino)-2-oxoethyl)(cyclopropyl)amino)-2-oxoethyl)-6-cyano-1H-indazole-3-carboxamide], the IC50 lay within 0.1 to 1 µM.

For `N#Cc1ccc(Cl)c(F)c1CNC(=O)CN(C(=O)Cn1nc(C(N)=O)c2ccccc21)C1CC1` [Example 87, 1-(2-((2-((3-chloro-6-cyano-2-fluorobenzyl)amino)-2-oxoethyl)(cyclopropyl)amino)-2-oxoethyl)-1H-indazole-3-carboxamide], under setting [1], the IC50 was 0.1 to 1 µM.

For the compound `NC(=O)c1nn(CC(=O)N(CC(=O)NCc2cccc(Cl)c2F)C2CC2)c2c(F)cccc12` [Example 88, 1-(2-((2-((3-chloro-2-fluorobenzyl)amino)-2-oxoethyl)(cyclopropyl)amino)-2-oxoethyl)-7-fluoro-1H-indazole-3-carboxamide], the IC50 under setting [1] lay within 0.1 to 1 µM.

As to `NCc1ccc2c(C(N)=O)nn(CC(=O)N(CC(=O)NCc3cccc(Cl)c3F)C3CC3)c2c1` [Example 89, 6-(aminomethyl)-1-(2-((2-((3-chloro-2-fluorobenzyl)amino)-2-oxoethyl)(cyclopropyl)amino)-2-oxoethyl)-1H-indazole-3-carboxamide], the IC50 under setting [1] was 1 to 10 µM.

With `N#Cc1cc(Cl)c(F)c(CNC(=O)CN(C(=O)Cn2nc(C(N)=O)c3ccccc32)C2CC2)c1` [Example 90, 1-(2-((2-((3-chloro-5-cyano-2-fluorobenzyl)amino)-2-oxoethyl)(cyclopropyl)amino)-2-oxoethyl)-1H-indazole-3-carboxamide], the concentration for half-maximal inhibition (IC50) under setting [1] lay within 1 to 10 µM.

In the case of `NC(=O)c1nn(CC(=O)N(CC(=O)NCc2cc(Cl)cc3[nH]ncc23)C2CC2)c2ccccc12` [Example 91, 1-(2-((2-(((6-chloro-1H-indazol-4-yl)methyl)amino)-2-oxoethyl)(cyclopropyl)amino)-2-oxoethyl)-1H-indazole-3-carboxamide], the IC50 under setting [1] is 0.1 to 1 µM.

As for `N#Cc1ccc2c(c1)c(C(N)=O)nn2CC(=O)N(CC(=O)NCc1cccc(Cl)c1F)C1CC1` [Example 92, 1-(2-((2-((3-chloro-2-fluorobenzyl)amino)-2-oxoethyl)(cyclopropyl)amino)-2-oxoethyl)-5-cyano-1H-indazole-3-carboxamide], the half-maximal inhibitory concentration (IC50) under setting [1] was in the range of 0.1 to 1 µM.

With `NC(=O)c1ccc2c(c1)c(C(N)=O)nn2CC(=O)N(CC(=O)NCc1cccc(Cl)c1F)C1CC1` [Example 93, 1-(2-((2-((3-chloro-2-fluorobenzyl)amino)-2-oxoethyl)(cyclopropyl)amino)-2-oxoethyl)-1H-indazole-3,5-dicarboxamide], under setting [1], the IC50 was 0.1 to 1 µM.

Take `NC(=O)c1nn(CC(=O)N(CC(=O)NCc2cccc(Cl)c2F)C2CC2)c2cc(C(F)(F)F)ccc12` [Example 94, 1-(2-((2-((3-chloro-2-fluorobenzyl)amino)-2-oxoethyl)(cyclopropyl)amino)-2-oxoethyl)-6-(trifluoromethyl)-1H-indazole-3-carboxamide]: under setting [1], the IC50 was 0.1 to 1 µM.

Consider `NC(=O)c1nn(CC(=O)N(CC(=O)NCc2cccc(Cl)c2F)C2CC2)c2ccc(C(F)(F)F)cc12` [Example 95, 1-(2-((2-((3-chloro-2-fluorobenzyl)amino)-2-oxoethyl)(cyclopropyl)amino)-2-oxoethyl)-5-(trifluoromethyl)-1H-indazole-3-carboxamide], for which the IC50 under setting [1] was 1 to 10 µM.

`N#Cc1ccc(CNC(=O)CN(C(=O)Cn2nc(C(N)=O)c3ccccc32)C2CC2)c(F)c1Cl` [Example 96, 1-(2-((2-((3-chloro-4-cyano-2-fluorobenzyl)amino)-2-oxoethyl)(cyclopropyl)amino)-2-oxoethyl)-1H-indazole-3-carboxamide]: the concentration for half-maximal inhibition (IC50) under setting [1] lay within 1 to 10 µM.

With `NC(=O)c1nn(CC(=O)N(CC(=O)NCc2cccc(Cl)c2F)C2CC2)c2cccc(F)c12` [Example 97, 1-(2-((2-((3-chloro-2-fluorobenzyl)amino)-2-oxoethyl)(cyclopropyl)amino)-2-oxoethyl)-4-fluoro-1H-indazole-3-carboxamide], the IC50 under setting [1] was 1 to 10 µM.

`O=C(CN(C(=O)Cn1nc(-c2ncc[nH]2)c2ccccc21)C1CC1)NCc1cccc(Cl)c1F` [Example 98, 2-(3-(1H-imidazol-2-yl)-1H-indazol-1-yl)-N-(2-((3-chloro-2-fluorobenzyl)amino)-2-oxoethyl)-N-cyclopropylacetamide]: the IC50 under setting [1] was 1 to 10 µM.
